From patent US12624034B2, “Non-covalent modifiers of AKT1 and uses thereof” (Terremoto Biosciences, Inc., priority 2023, dated 2026)
Where two headings read alike, the source gives them in different places.

Assays:
AKT2 = biological target: T1, AKT2 (Homo sapiens, UniProt P31751); test: Live cell AKT2 target engagement by NanoBRET competitive probe displacement in HEK293 cells; format: binding; conditions: 2 h at 37° C., read-out: AKT2 IC50
T1 construct: expressed in transfected cells; host or cells: HEK293
T1 sequence (P31751 whole entry): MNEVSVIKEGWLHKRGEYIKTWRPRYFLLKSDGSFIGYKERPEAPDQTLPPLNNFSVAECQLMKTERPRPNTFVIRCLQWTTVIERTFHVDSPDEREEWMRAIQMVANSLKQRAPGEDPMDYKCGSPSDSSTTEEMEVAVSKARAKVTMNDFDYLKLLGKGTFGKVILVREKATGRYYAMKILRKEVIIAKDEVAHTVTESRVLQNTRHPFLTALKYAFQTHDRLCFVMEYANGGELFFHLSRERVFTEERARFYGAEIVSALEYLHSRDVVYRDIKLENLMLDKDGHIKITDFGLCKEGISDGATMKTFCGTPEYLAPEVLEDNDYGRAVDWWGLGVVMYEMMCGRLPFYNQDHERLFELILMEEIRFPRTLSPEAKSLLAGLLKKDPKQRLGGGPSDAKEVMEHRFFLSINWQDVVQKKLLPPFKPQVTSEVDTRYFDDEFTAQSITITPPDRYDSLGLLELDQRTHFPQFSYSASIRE

AKT1 WT = biological target: T2, AKT1 WT (Homo sapiens, UniProt P31749); test: Live cell AKT1 WT target engagement by NanoBRET competitive probe displacement in HEK293 cells; format: binding; conditions: 2 h at 37° C., read-out: AKT1 WT IC50
T2 construct: expressed in transfected cells; host or cells: HEK293
T2 sequence (P31749 whole entry): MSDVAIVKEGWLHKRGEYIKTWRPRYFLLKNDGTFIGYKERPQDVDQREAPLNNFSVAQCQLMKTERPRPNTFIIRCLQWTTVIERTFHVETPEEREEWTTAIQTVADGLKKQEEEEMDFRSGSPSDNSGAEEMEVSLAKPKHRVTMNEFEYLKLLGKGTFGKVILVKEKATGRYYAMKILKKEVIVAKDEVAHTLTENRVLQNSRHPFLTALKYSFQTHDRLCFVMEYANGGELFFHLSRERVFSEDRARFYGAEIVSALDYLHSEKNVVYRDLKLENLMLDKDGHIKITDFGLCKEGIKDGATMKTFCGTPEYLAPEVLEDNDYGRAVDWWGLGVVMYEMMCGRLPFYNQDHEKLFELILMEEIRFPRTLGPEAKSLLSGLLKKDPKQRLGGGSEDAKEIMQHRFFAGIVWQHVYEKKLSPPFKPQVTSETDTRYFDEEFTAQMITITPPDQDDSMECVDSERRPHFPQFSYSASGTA

[1] = NanoBRET live cell target engagement, HEK293 cells
[2] = NanoBRET competitive probe displacement, live HEK293 cells

Structure (SMILES) | IC50 (AKT2; [1]) | IC50 (AKT1 WT; [1]) | IC50 (AKT2; [2]) | IC50 (AKT1 WT; [2])
CN1CCC(n2ccc(-c3ccc4nc(-c5cccnc5N)n(-c5ccc6c(c5)CC[C@@H]6NC5CCN(C(=O)C6CC6)CC5)c4n3)n2)CC1 [Compound 570] |  |  | 679 nM | 47.5 nM
COc1ccn(-c2ccc3nc(-c4cccnc4N)n(-c4ccc5c(c4)CC[C@@H]5NC4CN(C(=O)C5CC5)C4)c3n2)n1 [Compound 484] |  |  | 3850 nM | 28.4 nM
COc1ccn(-c2ccc3nc(-c4cccnc4N)n(-c4ccc5c(c4)CC[C@@H]5NC4CCN(C(=O)C5CC5)CC4F)c3n2)n1 (single isomer, unassigned) [Compound 514] |  |  | 1130 nM | 26.4 nM
COc1cncc(-c2ccc3nc(-c4cccnc4N)n(-c4ccc5c(c4)CC[C@@H]5NC4CCN(C(=O)C5CC5)CC4)c3n2)n1 [Compound 577] |  |  | 904 nM | 87.9 nM
Nc1ncccc1-c1nc2ccc(-n3cccn3)nc2n1-c1ccc2c(c1)CC[C@@H]2n1cc(C2CCO2)nn1 (stereo partly shown) [Compound 353] | 1270 nM | 25 nM |  | 
Nc1ncccc1-c1nc2ccc(C#CC3CC3)nc2n1-c1ccc2c(c1)CC[C@@H]2NC(=O)c1ccc(F)c(F)c1 [Compound 459] |  |  | 782 nM | 26.6 nM
CS(=O)(=O)Nc1ccn(-c2ccc3nc(-c4cccnc4N)n(-c4ccc5c(c4)CC[C@@H]5NC4CCN(C(=O)C5CC5)CC4)c3n2)n1 [Compound 582] |  |  | > 10000 nM | > 1000 nM
CSc1ccn(-c2ccc3nc(-c4cccnc4N)n(-c4ccc5c(c4)CC[C@@H]5NC4CCN(C(=O)C5CC5)CC4)c3n2)n1 [Compound 518] |  |  | 1290 nM | 32 nM
Nc1ncccc1-c1nc2ccc(-n3cccn3)nc2n1-c1ccc2c(c1)CC[C@@H]2n1cc(Cc2ccccc2)nn1 [Compound 156] | 722 nM | 39.3 nM |  | 
Nc1ncccc1-c1nc2ccc(-n3nccn3)nc2n1-c1ccc2c(c1)CC[C@@H]2NC(=O)c1cnc(C(F)(F)F)s1 [Compound 526] |  |  | 1260 nM | 20.2 nM
Cn1ccc(=O)n1-c1ccn(-c2ccc3nc(-c4cccnc4N)n(-c4ccc5c(c4)CC[C@@H]5NC4CCN(C(=O)C5CC5)CC4)c3n2)n1 [Compound 573] |  |  | 5640 nM | 318 nM
Cc1ncccc1C(=O)N[C@@H]1c2ccc(-n3c(-c4cccnc4N)nc4ccc(-n5cccn5)nc43)cc2CC1(F)F [Compound 187] | 21.3 nM | 6.73 nM |  | 
Nc1ncccc1-c1nc2ccc(-n3cccn3)nc2n1-c1ccc2c(c1)CC[C@@H]2N1CCCCC1 [Compound 342, (S)-3-(3-(1-(piperidin-1-yl)-2,3-dihydro-1H-inden-5-yl)-5-(1H-pyrazol-1-yl)-3H-imidazo[4,5-b]pyridin-2-yl)pyridin-2-amine] | 979 nM | 43.9 nM |  | 
Cc1ccc(C(=O)N[C@H]2CCc3cc(-n4c(-c5cccnc5N)nc5ccc(C#CC6CC6)nc54)ccc32)cn1 [Compound 435] |  |  | 1390 nM | 19.6 nM
C#Cc1ccc2nc(-c3cccnc3N)n(-c3ccc4c(c3)CC[C@@H]4NC(=O)c3ccc(C(F)F)nc3)c2n1 [Compound 404] |  |  | 2820 nM | 33.7 nM
O=C(C1CC1)N1CCC(N[C@@H]2c3ccc(-n4c(-c5ccccc5F)nc5ccc(-n6ccc(N7CCOCC7)n6)nc54)cc3CC2F)CC1 (stereo partly shown) [Compound 572] |  |  | 945 nM | 16.1 nM
Nc1ncccc1-c1nc2ccc(C3CC3)nc2n1-c1ccc2c(c1)CC[C@@H]2NC(=O)c1ccc(C(F)F)nc1 [Compound 130] | 2290 nM | 46.4 nM |  | 
Nc1ncccc1-c1nc2ccc(-n3cccn3)nc2n1-c1ccc2c(c1)CC[C@@H]2n1nnc2ccccc21 [Compound 345] | 752 nM | 51.6 nM |  | 
Nc1ncccc1-c1nc2ccc(-n3cccn3)nc2n1-c1ccc2c(c1)CC[C@@H]2N1CCCC1 [Compound 330] | 1190 nM | 55.1 nM |  | 
Nc1ncccc1-c1nc2ccc(-n3cccn3)nc2n1-c1ccc2c(c1)CC[C@@H]2NC1CCN(c2cccnc2)C1 (stereo partly shown) [Compound 471] |  |  | 1040 nM | 39 nM
Cc1ccc(C(=O)N[C@H]2CCc3cc(-n4c(-c5cccnc5N)nc5c(C#N)cc(-n6nccn6)nc54)ccc32)cn1 [Compound 547] |  |  | 1740 nM | 28.3 nM
Nc1ncccc1-c1nc2ccc(-n3cccn3)nc2n1-c1ccc2c(c1)CC[C@@H]2NC1CC2(CCCN(c3ccccn3)C2)C1 (stereo partly shown) [Compound 468] |  |  | 1960 nM | 74.7 nM
Nc1ncccc1-c1nc2ccc(-n3ccc(C4CC4)n3)nc2n1-c1ccc2c(c1)CC(F)[C@@H]2NC1CCN(C(=O)C2CC2)CC1 (stereo partly shown) [Compound 480] |  |  | 3140 nM | 38.9 nM
COc1ccn(-c2ccc3nc(-c4cccnc4N)n(-c4ccc5c(c4)CC[C@@H]5NC4[C@@H]5COC[C@H]4CN(C(=O)C4CC4)C5)c3n2)n1 (single isomer, unassigned) [Compound 524] |  |  | 1740 nM | 48.4 nM
Nc1ncccc1-c1nc2ccc(-n3ccc(N4CC5CC(C4)O5)n3)nc2n1-c1ccc2c(c1)CC(F)[C@@H]2NC1CCN(C(=O)C2CC2)CC1 (stereo partly shown) [Compound 552] |  |  | 166 nM | 9.18 nM

Second part, the compound after the results:

IC50 (AKT2; [1]) | IC50 (AKT1 WT; [1]) | IC50 (AKT2; [2]) | IC50 (AKT1 WT; [2]) | Structure (SMILES)
2690 nM | 56.9 nM |  |  | Cn1nc(C(=O)N[C@H]2CCc3cc(-n4c(-c5cccnc5N)nc5ccc(-n6cccn6)nc54)ccc32)cc1C#N [Compound 214]
123 nM | 10.8 nM |  |  | Nc1ncccc1-c1nc2ccc(-n3cccn3)nc2n1-c1ccc2c(c1)CC[C@@H]2NC(=O)c1cccc(O)c1 [Compound 307]
2850 nM | 95.9 nM |  |  | Cc1ncccc1C(=O)N[C@H]1CCc2cc(-n3c(-c4cccnc4N)nc4ccc(-c5ncco5)nc43)ccc21 [Compound 229]
36 nM | 6.39 nM |  |  | Nc1ncccc1-c1nc2ccc(-n3cccn3)nc2n1-c1ccc2c(c1)CC[C@@H]2NC(=O)c1cnc2c(c1)COC2 [Compound 106]
51.6 nM | 7.16 nM |  |  | Nc1ncc(C(=O)N[C@H]2CCc3cc(-n4c(-c5cccnc5N)nc5ccc(-n6cccn6)nc54)ccc32)cc1F [Compound 298]
763 nM | 198 nM |  |  | Cc1cc2ncn([C@H]3CCc4cc(-n5c(-c6cccnc6N)nc6ccc(-n7cccn7)nc65)ccc43)c(=O)c2cn1 [Compound 91, (S)-3-(5-(2-(2-aminopyridin-3-yl)-5-(1H-pyrazol-1-yl)-3H-imidazo[4,5-b]pyridin-3-yl)-2,3-dihydro-1H-inden-1-yl)-7-methylpyrido[4,3-d]pyrimidin-4(3H)-one]
830 nM | 40.9 nM |  |  | Cc1ccc(C(=O)N[C@H]2CCc3cc(-n4c(-c5cccnc5N)nc5ccc(-n6cccn6)nc54)ccc32)c(C(F)F)n1 [Compound 167]
 |  | 561 nM | 19.6 nM | Cc1ccc(C(=O)N[C@H]2CCc3cc(-n4c(-c5cccnc5N)nc5ccc(-n6cnc(C)n6)nc54)ccc32)cn1 [Compound 417, (S)—N-(5-(2-(2-aminopyridin-3-yl)-5-(3-methyl-1H-1,2,4-triazol-1-yl)-3H-imidazo[4,5-b]pyridin-3-yl)-2,3-dihydro-1H-inden-1-yl)-6-methylnicotinamide]
1110 nM | 83.1 nM |  |  | Cc1ncccc1C(=O)N[C@H]1CCc2cc(-n3c(-c4cccnc4N)nc4ccc(N5CCOCC5)nc43)ccc21 [Compound 135]
 |  | 70 nM | 2.96 nM | Nc1ncccc1-c1nc2ccc(-n3cccn3)nc2n1-c1ccc2c(c1)CC[C@@H]2NC(=O)c1cc(C2CC2)c(O)c(C(F)(F)F)c1 [Compound 415]
> 10000 nM | 330 nM |  |  | Cc1cnc(C)c(C(=O)N[C@H]2CCc3cc(-n4c(-c5cccnc5N)nc5ccc(-n6cccn6)nc54)ccc32)n1 [Compound 183]
240 nM | 16.6 nM |  |  | Nc1ncccc1-c1nc2ccc(-n3cccn3)nc2n1-c1ccc2c(c1)CC[C@@H]2NC(=O)c1cc(F)c(F)c(F)c1 [Compound 343]
73.6 nM | 5.99 nM |  |  | Cc1cc(C(=O)N[C@H]2CCc3cc(-n4c(-c5cccnc5N)nc5ccc(-n6cccn6)nc54)ccc32)ccn1 [Compound 75]
 |  | 795 nM | 25.3 nM | Cc1nnsc1C(=O)N[C@H]1CCc2cc(-n3c(-c4cccnc4N)nc4ccc(-n5cccn5)nc43)ccc21 [Compound 438]
> 10000 nM | > 1000 nM |  |  | CC(C)NC(=O)N[C@H]1CCc2cc(-n3c(-c4cccnc4N)nc4ccc(-n5cccn5)nc43)ccc21 [Compound 134, (S)-1-(5-(2-(2-aminopyridin-3-yl)-5-(1H-pyrazol-1-yl)-3H-imidazo[4,5-b]pyridin-3-yl)-2,3-dihydro-1H-inden-1-yl)-3-isopropylurea]
163 nM | 9.54 nM |  |  | Nc1ncccc1-c1nc2ccc(-n3cccn3)nc2n1-c1ccc2c(c1)CC[C@@H]2NC(=O)c1ccc(F)nc1 [Compound 264]
1090 nM | 117 nM |  |  | CNS(=O)(=O)c1cccc(C(=O)N[C@H]2CCc3cc(-n4c(-c5cccnc5N)nc5ccc(-n6cccn6)nc54)ccc32)c1 [Compound 239]
60.3 nM | 3.06 nM |  |  | Nc1ncccc1-c1nc2ccc(-n3cccn3)nc2n1-c1ccc2c(c1)CC[C@@H]2NC(=O)c1ccc(O)c(Cl)c1 [Compound 258]
56.5 nM | 5.14 nM |  |  | Nc1ncccc1-c1nc2ccc(-n3cccn3)nc2n1-c1ccc2c(c1)CC[C@@H]2NC(=O)c1cnc2cccn2c1 [Compound 291]
79.7 nM | 13 nM |  |  | Nc1ncccc1-c1nc2ccc(-n3cccn3)nc2n1-c1ccc2c(c1)CC[C@@H]2NC(=O)c1cc2ccccn2n1 [Compound 175]
4740 nM | 114 nM |  |  | Cc1cccnc1C(=O)N[C@H]1CCc2cc(-n3c(-c4cccnc4N)nc4ccc(-n5cccn5)nc43)ccc21 [Compound 184]
 |  | 196 nM | 10.4 nM | COc1cc2c(cn1)CCC2N[C@H]1CCc2cc(-n3c(-c4cccnc4N)nc4ccc(-n5cccn5)nc43)ccc21 (stereo partly shown) [Compound 511]
